The subject of one test is A549 cells. Put plainly: A549 proliferation (viability) assay, Cell Titer Fluor, 72 hours. The following applies: Homo sapiens. Format: cell-based. Summed up:
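Fluorescence read-out (Cell Titer Fluor, 30 min at 37 °C after reagent) after 72 h compound exposure of A549 cells; EC50 by four-parameter logistic curve fit. Cells: 1000/well, RPMI 1640 + 10% dialyzed FBS, 0.5% DMSO final.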

Test [1] addresses T1, GLS1 (purified recombinant human GAC) (Homo sapiens, UniProt O94925).
T1 sequence (O94925 55-598 isoform O94925-3 limits assumed): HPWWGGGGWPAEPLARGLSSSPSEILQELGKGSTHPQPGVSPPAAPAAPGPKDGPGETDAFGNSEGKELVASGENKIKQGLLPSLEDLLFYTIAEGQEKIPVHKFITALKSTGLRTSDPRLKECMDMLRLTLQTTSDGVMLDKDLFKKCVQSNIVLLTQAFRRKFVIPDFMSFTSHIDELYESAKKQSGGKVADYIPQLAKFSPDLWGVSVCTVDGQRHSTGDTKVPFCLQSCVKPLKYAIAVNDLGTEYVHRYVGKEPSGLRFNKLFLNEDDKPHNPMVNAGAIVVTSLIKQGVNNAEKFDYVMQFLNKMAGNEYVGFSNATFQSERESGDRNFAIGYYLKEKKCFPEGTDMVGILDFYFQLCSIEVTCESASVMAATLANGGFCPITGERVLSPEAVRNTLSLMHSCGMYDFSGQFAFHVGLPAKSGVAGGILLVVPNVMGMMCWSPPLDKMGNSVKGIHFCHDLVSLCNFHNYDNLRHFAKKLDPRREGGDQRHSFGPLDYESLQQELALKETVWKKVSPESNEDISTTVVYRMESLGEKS
Put plainly: GLS1 enzymatic activity assay (dual-coupled, Amplex UltraRed/resorufin). Format: biochemical. Put shortly:
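Recombinant human GAC (2 nM) preincubated with 50 mM potassium phosphate, then inhibitor (10 min each, RT); 1 mM glutamine, pH 7.4 Hepes buffer, 1% DMSO. Glutamate coupled via glutamate oxidase/HRP to resorufin (Ex 530/Em 590), kinetic or 20-min endpoint; IC50 by four-parameter logistic fit.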

Some results are limits rather than exact numbers.

The EC50 is the concentration needed to bring the measured effect to its halfway point. One may read the IC50 as the midpoint of a concentration-inhibition curve.

In the test on A549 cells, `Cn1ccnc1CC(=O)Nc1ccn(CCC(F)Cn2cc(C(=O)NCc3cccc(OC(F)(F)F)c3)nn2)c(=O)c1` (stereo not shown) [Example 189, 1-(2-fluoro-4-{4-[2-(1-methyl-1H-imidazol-2-yl)acetamido]-2-oxo-1,2-dihydropyridin-1-yl}butyl)-N-{[3-(trifluoromethoxy)phenyl]methyl}-1H-1,2,3-triazole-4-carboxamide] registered a concentration for a half-maximal effect (EC50) of more than 5 µM. Further, the IC50 in test [1] lay in the range of 0.1 to 0.5 µM.
`O=C(Cc1ccccc1)Nc1ccn(CCC(F)Cn2cc(C(=O)NCc3ccc(C(F)(F)F)cn3)nn2)c(=O)c1F` (stereo not shown) [Example 379, 1-{2-fluoro-4-[3-fluoro-2-oxo-4-(2-phenylacetamido)-1,2-dihydropyridin-1-yl]butyl}-N-{[5-(trifluoromethyl)pyridin-2-yl]methyl}-1H-1,2,3-triazole-4-carboxamide] had an EC50 in the test with A549 cells of 0.1 to 0.5 µM. For the same compound, the 50% inhibitory concentration (IC50) in test [1] is less than 0.1 µM.
On the same counts, the results for `O=C(NCc1cncc(C(F)(F)F)c1)c1cn(CC(F)CCn2ccc(NC(=O)C(F)c3ccccc3)c(F)c2=O)nn1` (stereo not shown) [Example 362, 1-{2-fluoro-4-[3-fluoro-4-(2-fluoro-2-phenylacetamido)-2-oxo-1,2-dihydropyridin-1-yl]butyl}-N-{[5-(trifluoromethyl)pyridin-3-yl]methyl}-1H-1,2,3-triazole-4-carboxamide] are less than 0.1 µM and less than 0.1 µM.
`O=C(Cc1cccc(OC(F)(F)F)c1)Nc1ccc(CCCCn2ccc(NC(=O)CC3CCCCC3)nc2=O)nn1` [Example 108, N-(6-{4-[4-(2-cyclohexylacetamido)-2-oxo-1,2-dihydropyrimidin-1-yl]butyl}pyridazin-3-yl)-2-[3-(trifluoromethoxy)phenyl]acetamide] showed an EC50 with A549 cells of less than 0.1 µM. Also, the IC50 in test [1] is less than 0.1 µM.
Consider `Cc1ccc(CNC(=O)c2cn(CC(F)CCn3ccc(NC(=O)C(=O)N4CCCCC4)c(F)c3=O)nn2)cn1` (stereo not shown) [Example 412, 1-(2-fluoro-4-{3-fluoro-2-oxo-4-[2-oxo-2-(piperidin-1-yl)acetamido]-1,2-dihydropyridin-1-yl}butyl)-N-[(6-methylpyridin-3-yl)methyl]-1H-1,2,3-triazole-4-carboxamide], for which the EC50 in the test with A549 cells is 0.5 to 5 µM. For the same compound, the IC50 in test [1] is 0.1 to 0.5 µM.
Take `CC(C)(C)OC(=O)N1CCC(CC(=O)Nc2ccn(CCC(F)Cn3cc(C(=O)NCc4cccc(OC(F)(F)F)c4)nn3)c(=O)c2F)CC1` (stereo not shown) [Example 289, tert-butyl 4-{[(3-fluoro-1-{3-fluoro-4-[4-({[3-(trifluoro-methoxy)phenyl]methyl}carbamoyl)-1H-1,2,3-triazol-1-yl]butyl}-2-oxo-1,2-dihydropyridin-4-yl)carbamoyl]methyl}piperidine-1-carboxylate]: the EC50 in the test with A549 cells is less than 0.1 µM. Also, the IC50 in test [1] was less than 0.1 µM.
Compound `Cc1ccc(CNC(=O)c2cn(CCCCn3ccc(NC(=O)OCc4ccccc4)cc3=O)nn2)cn1` [Example 135, benzyl N-{1-[4-(4-{[(6-methylpyridin-3-yl)methyl]carbamoyl}-1H-1,2,3-triazol-1-yl)butyl]-2-oxo-1,2-dihydropyridin-4-yl}carbamate] gave a 50% effective concentration (EC50) in the test on A549 cells of 0.5 to 5 µM. Also, the half-inhibitory concentration (IC50) in test [1] fell in the range of 0.1 to 0.5 µM.
Regarding `O=C(Nc1ccn(CCC(F)Cn2cc(C(=O)NCc3ccccn3)nn2)c(=O)c1F)C(=O)N1CCCCC1` (stereo not shown) [Example 427, 1-(2-fluoro-4-{3-fluoro-2-oxo-4-[2-oxo-2-(piperidin-1-yl)acetamido]-1,2-dihydropyridin-1-yl}butyl)-N-(pyridin-2-ylmethyl)-1H-1,2,3-triazole-4-carboxamide], in the test on A549 cells, the EC50 lay in the range of 0.5 to 5 µM. The 50% inhibitory concentration (IC50) in test [1] was in the range of 0.5 to 5 µM.
In the test with A549 cells, `O=C(Cc1cccc(OC(F)(F)F)c1)Nc1nnc(CCCCn2ccc(NC(=O)CC3CCCC3)c(F)c2=O)s1` [Example 503, 2-cyclopentyl-N-{3-fluoro-2-oxo-1-[4-(5-{2-[3-(trifluoromethoxy)phenyl]acetamido}-1,3,4-thiadiazol-2-yl)butyl]-1,2-dihydropyridin-4-yl}acetamide] came in with an EC50 of less than 0.1 µM. Moreover, in test [1], the IC50 is less than 0.1 µM.
In turn, `CCOC(=O)N1CCC(CC(=O)Nc2ccn(CCC(F)Cn3cc(C(=O)NCc4cncc(C(F)(F)F)c4)nn3)c(=O)c2F)CC1` (stereo not shown) [Example 363, ethyl 4-{[(3-fluoro-1-{3-fluoro-4-[4-({[5-(trifluoromethyl)pyridin-3-yl]methyl}carbamoyl)-1H-1,2,3-triazol-1-yl]butyl}-2-oxo-1,2-dihydropyridin-4-yl)carbamoyl]methyl}piperidine-1-carboxylate] displayed an EC50 in the test on A549 cells of less than 0.1 µM. For the same compound, the IC50 in test [1] is less than 0.1 µM.
With `O=C(Nc1ccn(CCCCn2cc(C(=O)NCc3cccc(OC(F)(F)F)c3)nn2)c(=O)c1)OC1CCCCC1` [Example 44, cyclohexyl N-(2-oxo-1-{4-[4-({[3-(trifluoromethoxy)phenyl]methyl}carbamoyl)-1H-1,2,3-triazol-1-yl]butyl}-1,2-dihydropyridin-4-yl)carbamate], the concentration for a half-maximal effect (EC50) with A549 cells was less than 0.1 µM. Further, the IC50 in test [1] was less than 0.1 µM.
In turn, `Cc1ccc(CNC(=O)c2cn(CC(F)CCn3ccc(NC(=O)OC4CCC4)nc3=O)nn2)cn1` (stereo not shown) [Example 413, cyclobutyl N-{1-[3-fluoro-4-(4-{[(6-methylpyridin-3-yl)methyl]carbamoyl}-1H-1,2,3-triazol-1-yl)butyl]-2-oxo-1,2-dihydropyrimidin-4-yl}carbamate] gave an EC50 with A549 cells of 0.5 to 5 µM. In addition, in test [1], the IC50 was 0.1 to 0.5 µM.
On the same counts, the results for `O=C(CC1CCC1)Nc1ccn(CCC(F)Cn2cc(C(=O)NCc3ccc(C(F)(F)F)nc3)nn2)c(=O)c1F` (stereo not shown) [Example 357, 1-{4-[4-(2-cyclobutylacetamido)-3-fluoro-2-oxo-1,2-dihydropyridin-1-yl]-2-fluorobutyl}-N-{[6-(trifluoromethyl)pyridin-3-yl]methyl}-1H-1,2,3-triazole-4-carboxamide] are 0.1 to 0.5 µM and less than 0.1 µM.
With `O=C(Nc1ccn(CCC(F)Cn2cc(C(=O)NCc3cccc(OC(F)(F)F)c3)nn2)c(=O)n1)OC1CCCCC1` (stereo not shown) [Example 383, cyclohexyl N-(1-{3-fluoro-4-[4-({[3-(trifluoromethoxy)phenyl]methyl}carbamoyl)-1H-1,2,3-triazol-1-yl]butyl}-2-oxo-1,2-dihydropyrimidin-4-yl)carbamate], the EC50 in the test on A549 cells is less than 0.1 µM. Further, in test [1], the half-maximal inhibitory concentration (IC50) was less than 0.1 µM.
In the test with A549 cells, `O=C(CC1CCCCC1)Nc1ccn(CCC(F)Cn2cc(C(=O)NCc3cccc(OC(F)(F)F)c3)nn2)c(=O)c1` (stereo not shown) [Example 175, 1-{4-[4-(2-cyclohexylacetamido)-2-oxo-1,2-dihydropyridin-1-yl]-2-fluorobutyl}-N-{[3-(trifluoromethoxy)phenyl]methyl}-1H-1,2,3-triazole-4-carboxamide] gave a concentration for a half-maximal effect (EC50) of less than 0.1 µM. The IC50 in test [1] was less than 0.1 µM.
For the compound `O=C(CC1CCCCC1)Nc1ccn(CCC(F)Cn2cc(C(=O)NCc3cc(OC(F)(F)F)ccc3F)nn2)c(=O)c1` (stereo not shown) [Example 176, 1-{4-[4-(2-cyclohexylacetamido)-2-oxo-1,2-dihydropyridin-1-yl]-2-fluorobutyl}-N-{[2-fluoro-5-(trifluoromethoxy)phenyl]methyl}-1H-1,2,3-triazole-4-carboxamide], the EC50 in the test with A549 cells is less than 0.1 µM. Also, the IC50 in test [1] was less than 0.1 µM.
Turning to `O=C(CC1CCNCC1)Nc1ccn(CCC(F)Cn2cc(C(=O)NCc3cccc(OC(F)(F)F)c3)nn2)c(=O)c1F` (stereo not shown) [Example 299, 1-(2-fluoro-4-{3-fluoro-2-oxo-4-[2-(piperidin-4-yl)acetamido]-1,2-dihydropyridin-1-yl}butyl)-N-{[3-(trifluoromethoxy)phenyl]methyl}-1H-1,2,3-triazole-4-carboxamide], in the test with A549 cells, the EC50 was 0.5 to 5 µM. The IC50 in test [1] lay within 0.1 to 0.5 µM.
In the test on A549 cells, `O=C(Nc1ccn(CCCCn2cc(C(=O)NCc3ccccn3)nn2)c(=O)c1)OCc1ccccc1` [Example 57, benzyl N-[2-oxo-1-(4-{4-[(pyridin-2-ylmethyl)carbamoyl]-1H-1,2,3-triazol-1-yl}butyl)-1,2-dihydropyridin-4-yl]carbamate] gave a half-maximal effective concentration (EC50) of 0.5 to 5 µM. Also, in test [1], the half-inhibitory concentration (IC50) is 0.1 to 0.5 µM.
In the test with A549 cells, `O=C(Cc1ccccc1)Nc1ccn(CCC(F)Cn2cc(C(=O)NCc3ncccc3F)nn2)c(=O)c1F` (stereo not shown) [Example 373, 1-{2-fluoro-4-[3-fluoro-2-oxo-4-(2-phenylacetamido)-1,2-dihydropyridin-1-yl]butyl}-N-[(3-fluoropyridin-2-yl)methyl]-1H-1,2,3-triazole-4-carboxamide] returned a concentration for a half-maximal effect (EC50) of 0.5 to 5 µM. In addition, the IC50 in test [1] is 0.1 to 0.5 µM.
`CC(C)(C)OC(=O)N1CC2(CN(CC(=O)Nc3ccn(CCC(F)Cn4cc(C(=O)NCc5cccc(OC(F)(F)F)c5)nn4)c(=O)c3F)C2)C1` (stereo not shown) [Example 297, tert-butyl 6-{[(3-fluoro-1-{3-fluoro-4-[4-({[3-(trifluoro-methoxy)phenyl]methyl}carbamoyl)-1H-1,2,3-triazol-1-yl]butyl}-2-oxo-1,2-dihydropyridin-4-yl)carbamoyl]methyl}-2,6-diazaspiro[3.3]heptane-2-carboxylate] displayed an EC50 in the test with A549 cells of less than 0.1 µM. Moreover, in test [1], the IC50 is less than 0.1 µM.
